Test results published in PubChem BioAssay (NCI).
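Briefly, cells in 96-well plates were exposed to five compound concentrations for 48 h, and endpoints were estimated by linear interpolation. GI50 = concentration required for 50% inhibition of growth. TGI denotes the concentration required for complete inhibition of growth.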

Key:
Assay in all cases: NCI-60 cell line screen, 48 h
SF-539 CNS = tested on: SF-539 CNS
HCT-15 colon = tested on: HCT-15 colon
A498 renal = tested on: A498 renal
M14 melanoma = tested on: M14 melanoma
SK-OV-3 ovarian = tested on: SK-OV-3 ovarian
NCI-H226 lung = tested on: NCI-H226 lung
TK-10 renal = tested on: TK-10 renal
SF-268 CNS = tested on: SF-268 CNS
MDA-MB-435 = tested on: MDA-MB-435
SR leukemia = tested on: SR leukemia
OVCAR-4 ovarian = tested on: OVCAR-4 ovarian
IGROV1 ovarian = tested on: IGROV1 ovarian
CAKI-1 renal = tested on: CAKI-1 renal
SK-MEL-5 melanoma = tested on: SK-MEL-5 melanoma
SW-620 colon = tested on: SW-620 colon
KM12 colon = tested on: KM12 colon
COLO 205 colon = tested on: COLO 205 colon
UACC-257 melanoma = tested on: UACC-257 melanoma
HT29 colon = tested on: HT29 colon
ACHN renal = tested on: ACHN renal
UACC-62 melanoma = tested on: UACC-62 melanoma
NCI-H23 lung = tested on: NCI-H23 lung
SN12C renal = tested on: SN12C renal
DU-145 prostate = tested on: DU-145 prostate
HCT-116 colon = tested on: HCT-116 colon
NCI-H460 lung = tested on: NCI-H460 lung
HL-60(TB) leukemia = tested on: HL-60(TB) leukemia
SF-295 CNS = tested on: SF-295 CNS
U251 CNS = tested on: U251 CNS
PC-3 prostate = tested on: PC-3 prostate
MALME-3M melanoma = tested on: MALME-3M melanoma
HS 578T breast = tested on: HS 578T breast
786-0 renal = tested on: 786-0 renal
SNB-19 CNS = tested on: SNB-19 CNS
NCI-H522 lung = tested on: NCI-H522 lung
MDA-MB-231 breast = tested on: MDA-MB-231 breast
LOX IMVI melanoma = tested on: LOX IMVI melanoma
SK-MEL-28 melanoma = tested on: SK-MEL-28 melanoma
SK-MEL-2 melanoma = tested on: SK-MEL-2 melanoma
RPMI-8226 leukemia = tested on: RPMI-8226 leukemia
OVCAR-5 ovarian = tested on: OVCAR-5 ovarian
NCI/ADR-RES ovarian = tested on: NCI/ADR-RES ovarian
OVCAR-3 ovarian = tested on: OVCAR-3 ovarian
K-562 leukemia = tested on: K-562 leukemia
CCRF-CEM leukemia = tested on: CCRF-CEM leukemia
T-47D breast = tested on: T-47D breast
OVCAR-8 ovarian = tested on: OVCAR-8 ovarian
A549 NSCLC = tested on: A549 NSCLC
EKVX NSCLC = tested on: EKVX NSCLC
BT-549 breast = tested on: BT-549 breast
HOP-92 NSCLC = tested on: HOP-92 NSCLC
HOP-62 NSCLC = tested on: HOP-62 NSCLC
MOLT-4 leukemia = tested on: MOLT-4 leukemia
HCC-2998 colon = tested on: HCC-2998 colon
MCF7 breast = tested on: MCF7 breast

O=C(/C=C(/C=C/c1cccc2[nH]ccc12)OB(F)F)/C=C/c1cccc2[nH]ccc12
GI50 (SF-539 CNS): 2160 nM
TGI (SF-539 CNS): 5860 nM
GI50 (HCT-15 colon): 348 nM
TGI (HCT-15 colon): 1490 nM
GI50 (A498 renal): 1700 nM
TGI (A498 renal): 3420 nM
GI50 (M14 melanoma): 1070 nM
TGI (M14 melanoma): 6930 nM
GI50 (SK-OV-3 ovarian): 2190 nM
TGI (SK-OV-3 ovarian): 5770 nM
GI50 (NCI-H226 lung): 1870 nM
TGI (NCI-H226 lung): 5590 nM
GI50 (TK-10 renal): 1930 nM
TGI (TK-10 renal): 7420 nM
GI50 (SF-268 CNS): 1130 nM
TGI (SF-268 CNS): 3980 nM
GI50 (MDA-MB-435): 475 nM
TGI (MDA-MB-435): 2550 nM
GI50 (SR leukemia): 460 nM
TGI (SR leukemia): > 100000 nM
GI50 (OVCAR-4 ovarian): 554 nM
TGI (OVCAR-4 ovarian): 24700 nM
GI50 (IGROV1 ovarian): 620 nM
TGI (IGROV1 ovarian): 6000 nM
GI50 (CAKI-1 renal): 876 nM
TGI (CAKI-1 renal): 3130 nM
GI50 (SK-MEL-5 melanoma): 1260 nM
TGI (SK-MEL-5 melanoma): 2730 nM
GI50 (SW-620 colon): 393 nM
TGI (SW-620 colon): 1580 nM
GI50 (KM12 colon): 949 nM
TGI (KM12 colon): 2540 nM
GI50 (COLO 205 colon): 771 nM
TGI (COLO 205 colon): 3150 nM
GI50 (UACC-257 melanoma): 2150 nM
TGI (UACC-257 melanoma): 11800 nM
GI50 (HT29 colon): 516 nM
TGI (HT29 colon): 3920 nM
GI50 (ACHN renal): 514 nM
TGI (ACHN renal): 2040 nM
GI50 (UACC-62 melanoma): 833 nM
TGI (UACC-62 melanoma): 2970 nM
GI50 (NCI-H23 lung): 838 nM
TGI (NCI-H23 lung): 3920 nM
GI50 (SN12C renal): 687 nM
TGI (SN12C renal): 5450 nM
GI50 (DU-145 prostate): 753 nM
TGI (DU-145 prostate): 2070 nM
GI50 (HCT-116 colon): 277 nM
TGI (HCT-116 colon): 951 nM
GI50 (NCI-H460 lung): 684 nM
TGI (NCI-H460 lung): 2910 nM
GI50 (HL-60(TB) leukemia): 641 nM
TGI (HL-60(TB) leukemia): 7230 nM
GI50 (SF-295 CNS): 1760 nM
TGI (SF-295 CNS): 4610 nM
GI50 (U251 CNS): 469 nM
TGI (U251 CNS): 1830 nM
GI50 (PC-3 prostate): 815 nM
TGI (PC-3 prostate): 3410 nM
GI50 (MALME-3M melanoma): 1010 nM
TGI (MALME-3M melanoma): 8560 nM
GI50 (HS 578T breast): 1500 nM
TGI (HS 578T breast): > 100000 nM
GI50 (786-0 renal): 477 nM
TGI (786-0 renal): 5030 nM
GI50 (SNB-19 CNS): 1440 nM
TGI (SNB-19 CNS): 4160 nM
GI50 (NCI-H522 lung): 359 nM
TGI (NCI-H522 lung): 2240 nM
GI50 (MDA-MB-231 breast): 1550 nM
TGI (MDA-MB-231 breast): 5190 nM
GI50 (LOX IMVI melanoma): 348 nM
TGI (LOX IMVI melanoma): 1020 nM
GI50 (SK-MEL-28 melanoma): 1040 nM
TGI (SK-MEL-28 melanoma): 2730 nM
GI50 (SK-MEL-2 melanoma): 2090 nM
TGI (SK-MEL-2 melanoma): 5630 nM
GI50 (RPMI-8226 leukemia): 354 nM
TGI (RPMI-8226 leukemia): 2550 nM
GI50 (OVCAR-5 ovarian): 1420 nM
TGI (OVCAR-5 ovarian): 3590 nM
GI50 (NCI/ADR-RES ovarian): 399 nM
TGI (NCI/ADR-RES ovarian): > 100000 nM
GI50 (OVCAR-3 ovarian): 353 nM
TGI (OVCAR-3 ovarian): 1230 nM
GI50 (K-562 leukemia): 423 nM
TGI (K-562 leukemia): > 100000 nM
GI50 (CCRF-CEM leukemia): 324 nM
GI50 (T-47D breast): 796 nM
TGI (T-47D breast): 26800 nM
GI50 (OVCAR-8 ovarian): 347 nM
TGI (OVCAR-8 ovarian): > 100000 nM
GI50 (A549 NSCLC): 1620 nM
TGI (A549 NSCLC): 14200 nM
GI50 (EKVX NSCLC): 1460 nM
TGI (EKVX NSCLC): 5540 nM
GI50 (BT-549 breast): 1030 nM
TGI (BT-549 breast): 4090 nM
GI50 (HOP-92 NSCLC): 1860 nM
TGI (HOP-92 NSCLC): 5150 nM
GI50 (HOP-62 NSCLC): 2310 nM
TGI (HOP-62 NSCLC): 9400 nM
GI50 (MOLT-4 leukemia): 385 nM
TGI (MOLT-4 leukemia): 3720 nM
GI50 (HCC-2998 colon): 1910 nM
TGI (HCC-2998 colon): 3630 nM
GI50 (MCF7 breast): 436 nM
TGI (MCF7 breast): 9450 nM
